In patent publication US20060093673A1, “Controlled release of anti-arrhythmic agents” (priority 2003, published 2006):
≈ marks a conversion by molar mass, not a printed value. Structures can show the parent of a compound that is named as a salt.

Assays:
[1] = Modulus and pH of FOCALSEAL-L as a function of drug loading; settings: loaded into the FOCALSEAL-L formulation
[2] = In-vitro release from FocalSeal-L gel disks, flow-through dissolution tank; type: physicochemical; settings: FocalSeal-L with 1% dexamethasone and 1% amiodarone HCl; 2 mm gel disc
From the text: Method: […] The gel disks were then placed in a flow-through dissolution tank and gels were sampled over time. Residual drug was extracted from the gel disks with methanol and drug was quantitated by HPLC.

[3] = cited from earlier work

| loading level that maintains acceptable pH and modulus values [1] | time over which amiodarone HCl is released in-vitro [2] [days] | SMILES | aqueous solubility [3] [µg/mL] |
| --- | --- | --- | --- |
| about 1.5% | 11 to 12 | CCCCc1oc2ccccc2c1C(=O)c1cc(I)c(OCCN(CC)CC)c(I)c1 [amiodarone, Amiodarone hydrochloride] |  |
|  |  | C[C@@H]1C[C@H]2[C@@H]3CCC4=CC(=O)C=C[C@]4(C)[C@@]3(F)[C@@H](O)C[C@]2(C)[C@@]1(O)C(=O)CO [dexamethasone free base, dexamethasone] | 10000 (≈ 25.5 mM) |
